From the NIST ThermoML archive (doi:10.1016/j.jct.2019.03.040)

Legend:
[1] = Liquid; for thermal diffusivity: 101.33 kPa, Laser flash apparatus
[2] = molar heat capacity at constant pressure; conditions: 101.33 kPa, Liquid, Small sample (50 mg) DSC

CCCCOC(=O)CCC(C)=O [butyl levulinate]
Conditions	Critical pressure [kPa]	Critical temperature [K]	molar heat capacity at constant pressure [J/K/mol]	thermal diffusivity [m2/s]
[1], 303.15 K	–	–	–	7.77e-08
[1], 313.15 K	–	–	–	7.68e-08
[1], 323.15 K	–	–	–	7.57e-08
[1], 333.15 K	–	–	–	7.48e-08
[1], 343.15 K	–	–	–	7.37e-08
[1], 353.15 K	–	–	–	7.26e-08
[1], 363.15 K	–	–	–	7.15e-08
[1], 373.15 K	–	–	–	7.06e-08
[1], Resistive pulse heating	2410	692	–	–
[2], 302.66 K	–	–	336.87	–
[2], 303.16 K	–	–	337.38	–
[2], 303.66 K	–	–	338.59	–
[2], 304.16 K	–	–	338.42	–
[2], 304.66 K	–	–	337.73	–
[2], 305.16 K	–	–	337.38	–
[2], 305.66 K	–	–	337.73	–
[2], 306.16 K	–	–	337.55	–
[2], 306.66 K	–	–	338.42	–
[2], 307.16 K	–	–	339.28	–
[2], 307.66 K	–	–	338.76	–
[2], 308.16 K	–	–	337.9	–
[2], 308.66 K	–	–	338.24	–
[2], 309.16 K	–	–	338.42	–
[2], 309.66 K	–	–	339.1	–
[2], 310.16 K	–	–	338.93	–
[2], 310.66 K	–	–	340.14	–
[2], 311.16 K	–	–	338.76	–
[2], 311.66 K	–	–	338.59	–
[2], 312.16 K	–	–	338.76	–
[2], 312.66 K	–	–	338.76	–
[2], 313.16 K	–	–	338.42	–
[2], 313.66 K	–	–	338.76	–
[2], 314.16 K	–	–	339.97	–
[2], 314.66 K	–	–	339.79	–
[2], 315.16 K	–	–	339.97	–
[2], 315.66 K	–	–	339.62	–
[2], 316.16 K	–	–	340.31	–
[2], 316.66 K	–	–	340.14	–
[2], 317.16 K	–	–	340.65	–
[2], 317.66 K	–	–	340.65	–
[2], 318.16 K	–	–	341.17	–
[2], 318.66 K	–	–	341	–
[2], 319.16 K	–	–	341.17	–
[2], 319.66 K	–	–	341	–
[2], 320.16 K	–	–	340.14	–
[2], 320.66 K	–	–	341.69	–
[2], 321.16 K	–	–	341.69	–
[2], 321.66 K	–	–	341	–
[2], 322.16 K	–	–	341	–
[2], 322.66 K	–	–	341.69	–
[2], 323.16 K	–	–	342.03	–
[2], 323.66 K	–	–	342.38	–
[2], 324.16 K	–	–	341.69	–
[2], 324.66 K	–	–	342.89	–
[2], 325.16 K	–	–	342.2	–
[2], 325.66 K	–	–	341.52	–
[2], 326.16 K	–	–	342.2	–
[2], 326.66 K	–	–	343.24	–
[2], 327.16 K	–	–	342.89	–
[2], 327.66 K	–	–	343.07	–
[2], 328.16 K	–	–	343.41	–
[2], 328.66 K	–	–	341.34	–
[2], 329.16 K	–	–	341.86	–
[2], 329.66 K	–	–	342.38	–
[2], 330.16 K	–	–	342.89	–
[2], 330.66 K	–	–	342.89	–
[2], 331.16 K	–	–	343.07	–
[2], 331.66 K	–	–	342.38	–
[2], 332.16 K	–	–	342.72	–
[2], 332.66 K	–	–	343.58	–
[2], 333.16 K	–	–	343.24	–
[2], 333.66 K	–	–	344.27	–
[2], 334.16 K	–	–	345.13	–
[2], 334.66 K	–	–	344.44	–
[2], 335.16 K	–	–	345.48	–
[2], 335.66 K	–	–	344.79	–
[2], 336.16 K	–	–	344.27	–
[2], 336.66 K	–	–	345.65	–
[2], 337.16 K	–	–	345.3	–
[2], 337.66 K	–	–	345.3	–
[2], 338.16 K	–	–	346.34	–
[2], 338.66 K	–	–	346.51	–
[2], 339.16 K	–	–	345.82	–
[2], 339.66 K	–	–	346.34	–
[2], 340.16 K	–	–	347.03	–
[2], 340.66 K	–	–	346.17	–
[2], 341.16 K	–	–	346.68	–
[2], 341.66 K	–	–	346.17	–
[2], 342.16 K	–	–	347.03	–
[2], 342.66 K	–	–	346.68	–
[2], 343.16 K	–	–	347.72	–
[2], 343.66 K	–	–	347.37	–
[2], 344.16 K	–	–	347.37	–
[2], 344.66 K	–	–	347.54	–
[2], 345.16 K	–	–	348.06	–
[2], 345.66 K	–	–	348.23	–
[2], 346.16 K	–	–	347.89	–
[2], 346.66 K	–	–	348.58	–
[2], 347.16 K	–	–	348.23	–
[2], 347.66 K	–	–	349.09	–
[2], 348.16 K	–	–	348.92	–
[2], 348.66 K	–	–	349.27	–
[2], 349.16 K	–	–	349.27	–
[2], 349.66 K	–	–	349.78	–
[2], 350.16 K	–	–	349.78	–
[2], 350.66 K	–	–	350.13	–
[2], 351.16 K	–	–	349.95	–
[2], 351.66 K	–	–	349.61	–
[2], 352.16 K	–	–	350.13	–
[2], 352.66 K	–	–	348.58	–
[2], 353.16 K	–	–	348.23	–
[2], 353.66 K	–	–	348.58	–
[2], 354.16 K	–	–	349.44	–
[2], 354.66 K	–	–	349.95	–
[2], 355.16 K	–	–	349.95	–
[2], 355.66 K	–	–	350.64	–
[2], 356.16 K	–	–	350.13	–
[2], 356.66 K	–	–	350.13	–
[2], 357.16 K	–	–	351.5	–
[2], 357.66 K	–	–	350.99	–
[2], 358.16 K	–	–	351.5	–
[2], 358.66 K	–	–	351.68	–
[2], 359.16 K	–	–	351.85	–
[2], 359.66 K	–	–	351.85	–
[2], 360.16 K	–	–	352.02	–
[2], 360.66 K	–	–	351.68	–
[2], 361.16 K	–	–	352.37	–
[2], 361.66 K	–	–	353.05	–
[2], 362.16 K	–	–	352.71	–
[2], 362.66 K	–	–	352.88	–
[2], 363.16 K	–	–	352.02	–
[2], 363.66 K	–	–	352.71	–
[2], 364.16 K	–	–	353.23	–
[2], 364.66 K	–	–	353.57	–
[2], 365.16 K	–	–	353.05	–
[2], 365.66 K	–	–	353.4	–
[2], 366.16 K	–	–	353.4	–
[2], 366.66 K	–	–	354.6	–
[2], 367.16 K	–	–	353.57	–
[2], 367.66 K	–	–	353.57	–
[2], 368.16 K	–	–	354.09	–
[2], 368.66 K	–	–	353.92	–
[2], 369.16 K	–	–	353.57	–
[2], 369.66 K	–	–	353.4	–
[2], 370.16 K	–	–	354.95	–
[2], 370.66 K	–	–	354.78	–
[2], 371.16 K	–	–	354.09	–
[2], 371.66 K	–	–	354.78	–
[2], 372.16 K	–	–	355.29	–
[2], 372.66 K	–	–	355.81	–
[2], 373.16 K	–	–	354.78	–
[2], 373.66 K	–	–	355.81	–
[2], 374.16 K	–	–	355.98	–
